Results from patent US3939266A, “Substituted sulfonylacetamido cephalosporins” (SmithKline Corporation, priority 1974, dated 1976).
Converted amounts (≈) assume the structure as drawn. Like-named read-outs stand apart in the source and are kept apart here.

Experiments:
Type in all cases: cell-based
Strep. pyog. C 203 = assay: MIC against Strep. pyog. C 203
E. coli HH 33779 = assay: MIC against E. coli HH 33779; conditions: Escherichia coli, HH33779
Kleb. pneumo. SK 1200 = assay: MIC against Kleb. pneumo. SK 1200
Salmonella ATCC 12176 = assay: MIC against Salmonella ATCC 12176; conditions: ATCC12176
S. aureus SK 23390 = assay: MIC against S. aureus SK 23390; conditions: Staphylococcus aureus, SK23390
Pseudo. sp. HH 63 = assay: MIC against Pseudo. sp. HH 63
Strep. faecalis HH 34358 = assay: MIC against Strep. faecalis HH 34358; conditions: Enterococcus faecalis, HH34358
[1] = tested on: Entero. aerog. ATCH 13048; assay: MIC against Entero. aerog. ATCH 13048
E. coli SK 12140 = assay: MIC against E. coli SK 12140; conditions: Escherichia coli, SK12140
S. aureus HH 127 = assay: MIC against S. aureus HH 127; conditions: Staphylococcus aureus, HH127
Shigella HH 112 = assay: MIC against Shigella HH 112; conditions: HH112
Kleb. pneumo. SK 4200 = assay: MIC against Kleb. pneumo. SK 4200
Entero. cloaca PaSL 969 = assay: MIC against Entero. cloaca PaSL 969
Serra. marc. ATCC 13880 = assay: MIC against Serra. marc. ATCC 13880
S. villaluz = assay: MIC against S. villaluz
[2] = Salmonella ATCC 12176, read-out: MIC
[3] = E. coli SK 12140, read-out: MIC

SMILES	MIC (Strep. pyog. C 203) [µg/mL]	MIC (E. coli HH 33779) [µg/mL]	MIC (Kleb. pneumo. SK 1200) [µg/mL]	MIC (Salmonella ATCC 12176; [2]) [µg/mL]	MIC (S. aureus SK 23390) [µg/mL]	MIC (Pseudo. sp. HH 63) [µg/mL]	MIC (Strep. faecalis HH 34358) [µg/mL]	MIC [1] [µg/mL]	MIC (E. coli SK 12140; [3]) [µg/mL]	MIC (S. aureus HH 127) [µg/mL]	MIC (Shigella HH 112; Shigella HH 112, read-out: MIC) [µg/mL]	MIC (Kleb. pneumo. SK 4200) [µg/mL]	MIC (Entero. cloaca PaSL 969) [µg/mL]	MIC (E. coli SK 12140) [µg/mL]	MIC (Serra. marc. ATCC 13880) [µg/mL]	MIC (S. villaluz) [µg/mL]	MIC (Salmonella ATCC 12176; Salmonella) [µg/mL]	MIC (Shigella HH 112; Shigella) [µg/mL]
CC(=O)OCC1=C(C(=O)O)N2C(=O)C(NC(=O)CS(C)(=O)=O)C2SC1 (centres unmarked) [Compound 54293, 7-Methylsulfonylacetamidocephalosporanic acid]	0.4 (≈ 1.02 µM)	25 (≈ 63.7 µM)	12.5 (≈ 31.9 µM)	12.5 (≈ 31.9 µM)	1.6 (≈ 4.08 µM)	> 200	200 (≈ 510 µM)	> 200	12.5 (≈ 31.9 µM)	3.1 (≈ 7.9 µM)	25 (≈ 63.7 µM)	12.5 (≈ 31.9 µM)	> 200					
Cc1nnc(SCC2=C(C(=O)O)N3C(=O)C(NC(=O)CS(C)(=O)=O)[C@H]3SC2)s1 (some centres unmarked) [Compound 55848, 7-Methylsulfonylacetamido-3-(2-methyl-1,3,4-thiadiazol-5-ylthiomethyl)-3-cephem-4-carboxylic acid]	0.2 (≈ 0.431 µM)	25 (≈ 53.8 µM)	6.3 (≈ 13.6 µM)	3.1 (≈ 6.67 µM)	1.6 (≈ 3.44 µM)	> 200	50 (≈ 108 µM)	> 200		1.6 (≈ 3.44 µM)	12.5 (≈ 26.9 µM)	3.1 (≈ 6.67 µM)	> 200	12.5 (≈ 26.9 µM)				
Cn1nnnc1SCC1=C(C(=O)O)N2C(=O)C(NC(=O)CS(C)(=O)=O)[C@H]2SC1 (some centres unmarked) [Compound 57286, 7-Methylsulfonylacetamido-3-(1-methyltetrazol-5-ylthiomethyl)-3-cephem-4-carboxylic acid]	0.2 (≈ 0.446 µM)	12.5 (≈ 27.9 µM)	3.1 (≈ 6.91 µM)	3.1 (≈ 6.91 µM)	1.6 (≈ 3.57 µM)	> 200	100 (≈ 223 µM)	> 200	3.1 (≈ 6.91 µM)	3.1 (≈ 6.91 µM)	3.1 (≈ 6.91 µM)	1.6 (≈ 3.57 µM)	> 200		> 200			
CC(=O)OCC1=C(C(=O)O)N2C(=O)C(NC(=O)CS(=O)(=O)c3ccccc3)C2SC1 (centres unmarked) [Compound 57359, 7-Phenylsulfonylacetamidocephalosporanic acid]	0.2 (≈ 0.44 µM)	100 (≈ 220 µM)	6.3 (≈ 13.9 µM)	12.5 (≈ 27.5 µM)	0.8 (≈ 1.76 µM)	> 200	50 (≈ 110 µM)	> 200	50 (≈ 110 µM)	1.6 (≈ 3.52 µM)	25 (≈ 55 µM)	12.5 (≈ 27.5 µM)	> 200		> 200			
Cc1nnc(SCC2=C(C(=O)O)N3C(=O)C(NC(=O)CS(=O)(=O)c4ccccc4)[C@H]3SC2)s1 (some centres unmarked) [Compound 57360, 7-Phenylsulfonylacetamido-3-(2-methyl-1,3,4-thiadiazol-5-ylthiomethyl)-3-cephem-4-carboxylic acid]	0.1 (≈ 0.19 µM)	100 (≈ 190 µM)	12.5 (≈ 23.7 µM)	25 (≈ 47.5 µM)	0.4 (≈ 0.76 µM)	> 200	25 (≈ 47.5 µM)	> 200	25 (≈ 47.5 µM)	0.8 (≈ 1.52 µM)	25 (≈ 47.5 µM)	25 (≈ 47.5 µM)	> 200		> 200			
CS(=O)(=O)CC(=O)NC1C(=O)N2C(C(=O)[O-])=C(C[n+]3ccccc3)CSC12 (centres unmarked) [Compound 59345, 7-Methylsulfonylacetamido-3-(1-pyridiniummethyl)-3-cephem-4-carboxylic acid]	0.1 (≈ 0.243 µM)	100 (≈ 243 µM)	100 (≈ 243 µM)	50 (≈ 122 µM)	0.8 (≈ 1.94 µM)	> 200	100 (≈ 243 µM)	> 200	100 (≈ 243 µM)	0.8 (≈ 1.94 µM)	50 (≈ 122 µM)	50 (≈ 122 µM)	> 200		> 200	25 (≈ 60.8 µM)		
CC(=O)OCC1=C(C(=O)O)N2C(=O)C(NC(=O)CS(N)(=O)=O)C2SC1 (centres unmarked) [Compound 59393, 7-Aminosulfonylacetamidocephalosporanic acid]	0.1 (≈ 0.254 µM)	50 (≈ 127 µM)	25 (≈ 63.5 µM)	12.5 (≈ 31.8 µM)	1.6 (≈ 4.07 µM)	> 200	50 (≈ 127 µM)	200 (≈ 508 µM)	50 (≈ 127 µM)	1.6 (≈ 4.07 µM)	25 (≈ 63.5 µM)	25 (≈ 63.5 µM)	100 (≈ 254 µM)		> 200			
CC1=C(C(=O)O)N2C(=O)C(NC(=O)CS(C)(=O)=O)[C@H]2SC1 (some centres unmarked) [Compound 59454, 7-Methylsulfonylacetamido-3-methyl-3-cephem-4-carboxylic acid]	0.4 (≈ 1.2 µM)	> 200	> 200	> 200	25 (≈ 74.8 µM)	> 200	> 200	> 200	> 200	25 (≈ 74.8 µM)	> 200	> 200	> 200		> 200	> 200		
Cc1nc(SCC2=C(C(=O)O)N3C(=O)C(NC(=O)CS(C)(=O)=O)C3SC2)n[nH]1 (centres unmarked) [Compound 59586]	0.2 (≈ 0.447 µM)	25 (≈ 55.9 µM)	3.1 (≈ 6.93 µM)	1.6 (≈ 3.58 µM)	0.8 (≈ 1.79 µM)	> 200	100 (≈ 223 µM)	200 (≈ 447 µM)	6.3 (≈ 14.1 µM)	1.6 (≈ 3.58 µM)	12.5 (≈ 27.9 µM)	3.1 (≈ 6.93 µM)	> 200		> 200	100 (≈ 223 µM)		
CCS(=O)(=O)CC(=O)NC1C(=O)N2C(C(=O)O)=C(COC(C)=O)CSC12 (centres unmarked) [Compound 59623, 7-Ethylsulfonylacetamidocephalosporanic acid]	0.1 (≈ 0.246 µM)	50 (≈ 123 µM)	6.3 (≈ 15.5 µM)	3.1 (≈ 7.63 µM)	0.8 (≈ 1.97 µM)	> 200	100 (≈ 246 µM)	200 (≈ 492 µM)	25 (≈ 61.5 µM)	0.8 (≈ 1.97 µM)	25 (≈ 61.5 µM)	6.3 (≈ 15.5 µM)			> 200	100 (≈ 246 µM)		
CCS(=O)(=O)CC(=O)NC1C(=O)N2C(C(=O)O)=C(CSc3nnc(C)s3)CSC12 (centres unmarked) [Compound 59641, 7-Ethyldulfonylacetamido-3-(2-methyl-1,3,5-thiadiazol-5-yl-thiomethyl)-3-cephem-4-carboxylic acid]	0.1 (≈ 0.209 µM)	12.5 (≈ 26.1 µM)	1.6 (≈ 3.34 µM)	1.6 (≈ 3.34 µM)	0.4 (≈ 0.836 µM)	> 200	25 (≈ 52.2 µM)	100 (≈ 209 µM)	3.1 (≈ 6.48 µM)	0.4 (≈ 0.836 µM)	6.3 (≈ 13.2 µM)	1.6 (≈ 3.34 µM)			> 200			
Cn1cnnc1SCC1=C(C(=O)O)N2C(=O)C(NC(=O)CS(C)(=O)=O)C2SC1 (centres unmarked) [Compound 59758]	0.1 (≈ 0.223 µM)	12.5 (≈ 27.9 µM)	6.3 (≈ 14.1 µM)		1.6 (≈ 3.58 µM)	> 200	200 (≈ 447 µM)	> 200	6.3 (≈ 14.1 µM)	3.1 (≈ 6.93 µM)		6.3 (≈ 14.1 µM)			> 200	50 (≈ 112 µM)	3.1 (≈ 6.93 µM)	0.1 (≈ 0.223 µM)
Cn1c(SCC2=C(C(=O)O)N3C(=O)C(NC(=O)CS(C)(=O)=O)C3SC2)n[nH]c1=O (centres unmarked) [Compound 59857]	0.2 (≈ 0.431 µM)	50 (≈ 108 µM)	6.3 (≈ 13.6 µM)	3.1 (≈ 6.69 µM)	1.6 (≈ 3.45 µM)	> 200	100 (≈ 216 µM)	> 200	25 (≈ 53.9 µM)	1.6 (≈ 3.45 µM)	25 (≈ 53.9 µM)	6.3 (≈ 13.6 µM)			> 200	25 (≈ 53.9 µM)		
